Values of other authors, collected in patent publication US20070092539A1 (priority 2003, published 2007).

How the values were obtained:
rates with arthritis = conditions: experimental models on rates with arthritis, compared with other AINEs

Which results are given for `Cc1cnc(NC(=O)C2=C(O)c3ccccc3S(=O)(=O)N2C)s1` [meloxicam, 4-hydroxy-2-methyl-N-(5-methyl-2-thiazolyl)-2H-1,2-benzotiazine-3-carboxamide-1,1-dioxide]?
solubility in methanol (methanol): slightly soluble in methanol; solubility in water (water): practically insoluble in water; therapeutic margin (ulcerogenic vs anti-inflammatory doses) (rates with arthritis): superior therapeutic margin over the other AINEs
